ChEMBL document CHEMBL1156794, “Synthesis and antimicrobial evaluation of amphiphilic neamine derivatives” (J Med Chem, 2010)

Key:
Staphylococcus aureus [1] = test: Antibacterial activity against MsrA pump expressing Staphylococcus aureus after 24 hrs by geometric microdilution method; type: functional
Staphylococcus aureus [2] = test: Antibacterial activity against aminoglycoside-6'-N-acetyltransferase/2''-O-phosphoryltransferase expressing Staphylococcus aureus after 24 hrs by geometric microdilution method; type: functional
Staphylococcus aureus [3] = test: Antibacterial activity against aminoglycoside-3'-O-phosphoryltransferase expressing Staphylococcus aureus after 24 hrs by geometric microdilution method; type: functional
Staphylococcus aureus [4] = test: Antibacterial activity against aminoglycoside-4'-O-phosphoryltransferase expressing Staphylococcus aureus after 24 hrs by geometric microdilution method; type: functional
Staphylococcus aureus [5] = test: Antibacterial activity against Staphylococcus aureus ATCC 25923 after 24 hrs by geometric microdilution method; type: functional; conditions: ATCC 25923, 24 h
Staphylococcus aureus [6] = test: Antibacterial activity against NorA pump expressing Staphylococcus aureus after 24 hrs by geometric microdilution method; type: functional
Staphylococcus aureus [7] = test: Antibacterial activity against methicillin-resistant Staphylococcus aureus ATCC 33592 clinical isolate after 24 hrs by geometric microdilution method; type: functional; conditions: ATCC 33592, 24 h
Staphylococcus aureus [8] = test: Antibacterial activity against vancomycin-resistant Staphylococcus aureus VRS-2 after 24 hrs by geometric microdilution method; type: functional; conditions: VRS-2, 24 h
Acinetobacter lwoffii [9] = test: Antibacterial activity against […] expressing Acinetobacter lwoffii AI.88-483 after 24 hrs by geometric microdilution method; type: functional; conditions: AI.88-483, 24 h
Pseudomonas aeruginosa [10] = test: Antibacterial activity against Pseudomonas aeruginosa ATCC 27853 after 24 hrs by geometric microdilution method; type: functional; conditions: ATCC 27853, 24 h
Pseudomonas aeruginosa [11] = test: Antibacterial activity against AAC6'-2a expressing Pseudomonas aeruginosa F03 after 24 hrs by geometric microdilution method; type: functional; conditions: F03, 24 h
Pseudomonas aeruginosa [12] = test: Antibacterial activity against MexXY expressing Pseudomonas aeruginosa PT629 after 24 hrs by geometric microdilution method; type: functional; conditions: PT629, 24 h
Klebsiella pneumoniae = test: Antibacterial activity against Klebsiella pneumoniae ATCC 700603 after 24 hrs by geometric microdilution method; type: functional; conditions: ATCC 700603, 24 h
Escherichia coli [13] = test: Antibacterial activity against AAC6'-2b expressing Escherichia coli PAZ505H8101 after 24 hrs by geometric microdilution method; type: functional; conditions: PAZ505H8101, 24 h
Escherichia coli [14] = test: Antibacterial activity against ANT2'-2a expressing Escherichia coli L58058.1 after 24 hrs by geometric microdilution method; type: functional; conditions: L58058.1, 24 h
Pseudomonas aeruginosa [15] = test: Antibacterial activity against Pseudomonas aeruginosa PAO1 after 24 hrs by geometric microdilution method; type: functional; conditions: PAO1, 24 h
Pseudomonas aeruginosa [16] = test: Antibacterial activity against MexCD expressing Pseudomonas aeruginosa PA01 after 24 hrs by geometric microdilution method; type: functional; conditions: PA01, 24 h
Pseudomonas aeruginosa [17] = test: Antibacterial activity against MexEF expressing Pseudomonas aeruginosa PA03 after 24 hrs by geometric microdilution method; type: functional; conditions: PA03, 24 h
Pseudomonas aeruginosa [18] = test: Antibacterial activity against MexAB expressing Pseudomonas aeruginosa PA21 after 24 hrs by geometric microdilution method; type: functional; conditions: PA21, 24 h
Pseudomonas aeruginosa [19] = test: Antibacterial activity against MexXY expressing Pseudomonas aeruginosa PA22 after 24 hrs by geometric microdilution method; type: functional; conditions: PA22, 24 h
Pseudomonas aeruginosa [20] = test: Antibacterial activity against TriABC expressing MexAB, MexCD, MexEF, MexXY deleted Pseudomonas aeruginosa PA405 after 24 hrs by geometric microdilution method; type: functional; conditions: PA405, 24 h
Pseudomonas aeruginosa [21] = test: Antibacterial activity against MexAB, MexCD, MexEF, MexXY, TriABC deleted Pseudomonas aeruginosa PA406 after 24 hrs by geometric microdilution method; type: functional; conditions: PA406, 24 h
Acinetobacter lwoffii [22] = test: microbe, parasite or virus in culture; conditions: ATCC 17925, 24 h
Description: Antibacterial activity against Acinetobacter lwoffii ATCC 17925 after 24 hrs by geometric microdilution method

Escherichia coli [23] = test: microbe, parasite or virus in culture; conditions: ATCC 25922, 24 h
Description: Antibacterial activity against Escherichia coli ATCC 25922 after 24 hrs by geometric microdilution method

Measured: MIC

NC[C@H]1O[C@H](O[C@H]2[C@H](O)[C@@H](OCc3ccccn3)[C@H](N)C[C@@H]2N)[C@H](N)[C@@H](OCc2ccccn2)[C@@H]1OCc1ccccn1
> 128 µg/mL: Staphylococcus aureus [1] | Staphylococcus aureus [2] | Staphylococcus aureus [3] | Staphylococcus aureus [4] | Staphylococcus aureus [5] | Staphylococcus aureus [6]

NC[C@H]1O[C@H](O[C@H]2[C@H](O)[C@@H](OCc3ccccc3)[C@H](N)C[C@@H]2N)[C@H](N)[C@@H](OCc2ccccc2)[C@@H]1O
> 128 µg/mL: Staphylococcus aureus [1] | Staphylococcus aureus [2] | Staphylococcus aureus [3] | Staphylococcus aureus [4] | Staphylococcus aureus [5] | Staphylococcus aureus [6]

NC[C@H]1O[C@H](O[C@H]2[C@H](O)[C@@H](O)[C@H](N)C[C@@H]2N)[C@H](N)[C@@H](OCc2ccc3ccccc3c2)[C@@H]1OCc1ccc2ccccc2c1
> 128 µg/mL: Acinetobacter lwoffii [9] | Pseudomonas aeruginosa [11] | Pseudomonas aeruginosa [12] | Klebsiella pneumoniae | Pseudomonas aeruginosa [19]
64 µg/mL: Pseudomonas aeruginosa [15] | Pseudomonas aeruginosa [18]
8 µg/mL: Staphylococcus aureus [1] | Staphylococcus aureus [2] | Staphylococcus aureus [4] | Staphylococcus aureus [7] | Pseudomonas aeruginosa [17] | Pseudomonas aeruginosa [20] | Pseudomonas aeruginosa [21] | Staphylococcus aureus [6] | Acinetobacter lwoffii [22]
16 µg/mL: Escherichia coli [13] | Escherichia coli [14] | Pseudomonas aeruginosa [16]
4 µg/mL: Staphylococcus aureus [3] | Staphylococcus aureus [8] | Staphylococcus aureus [5]
32 µg/mL: Pseudomonas aeruginosa [10] | Escherichia coli [23]

NC[C@H]1O[C@H](O[C@H]2[C@H](O)[C@@H](O)[C@H](N)C[C@@H]2N)[C@H](N)[C@@H](O)[C@@H]1O [NEAMINE]
2 µg/mL: Acinetobacter lwoffii [22]
128 µg/mL: Pseudomonas aeruginosa [20] | Pseudomonas aeruginosa [21]
16 µg/mL: Staphylococcus aureus [1] | Staphylococcus aureus [2]
32 µg/mL: Klebsiella pneumoniae | Escherichia coli [14] | Staphylococcus aureus [5] | Staphylococcus aureus [6] | Escherichia coli [23]
> 128 µg/mL: Staphylococcus aureus [3] | Staphylococcus aureus [4] | Staphylococcus aureus [7] | Staphylococcus aureus [8] | Acinetobacter lwoffii [9] | Pseudomonas aeruginosa [10] | Pseudomonas aeruginosa [11] | Pseudomonas aeruginosa [12] | Escherichia coli [13] | Pseudomonas aeruginosa [15] | Pseudomonas aeruginosa [16] | Pseudomonas aeruginosa [17] | Pseudomonas aeruginosa [18] | Pseudomonas aeruginosa [19]

NC[C@H]1O[C@H](O[C@H]2[C@H](OCc3ccc4ccccc4c3)[C@@H](OCc3ccc4ccccc4c3)[C@H](N)C[C@@H]2N)[C@H](N)[C@@H](OCc2ccc3ccccc3c2)[C@@H]1OCc1ccc2ccccc2c1
> 128 µg/mL: Acinetobacter lwoffii [9]
128 µg/mL: Klebsiella pneumoniae
64 µg/mL: Pseudomonas aeruginosa [10] | Pseudomonas aeruginosa [11] | Pseudomonas aeruginosa [12] | Escherichia coli [13] | Escherichia coli [14] | Pseudomonas aeruginosa [15] | Pseudomonas aeruginosa [16] | Pseudomonas aeruginosa [17] | Pseudomonas aeruginosa [18] | Pseudomonas aeruginosa [19] | Pseudomonas aeruginosa [20] | Pseudomonas aeruginosa [21]

NC[C@H]1O[C@H](O[C@H]2[C@H](O)[C@@H](OCc3ccc4ccccc4c3)[C@H](N)C[C@@H]2N)[C@H](N)[C@@H](O)[C@@H]1OCc1ccc2ccccc2c1
16 µg/mL: Staphylococcus aureus [3] | Staphylococcus aureus [4] | Pseudomonas aeruginosa [17] | Pseudomonas aeruginosa [21]
32 µg/mL: Staphylococcus aureus [1] | Staphylococcus aureus [2] | Staphylococcus aureus [8] | Pseudomonas aeruginosa [20] | Staphylococcus aureus [5] | Staphylococcus aureus [6]
128 µg/mL: Escherichia coli [14] | Pseudomonas aeruginosa [16] | Escherichia coli [23]
> 128 µg/mL: Acinetobacter lwoffii [9] | Pseudomonas aeruginosa [10] | Pseudomonas aeruginosa [11] | Pseudomonas aeruginosa [12] | Klebsiella pneumoniae | Pseudomonas aeruginosa [15] | Pseudomonas aeruginosa [18] | Pseudomonas aeruginosa [19]
64 µg/mL: Staphylococcus aureus [7] | Escherichia coli [13] | Acinetobacter lwoffii [22]

NC[C@H]1O[C@H](O[C@H]2[C@H](O)[C@@H](OCc3ccc4ccccc4c3)[C@H](N)C[C@@H]2N)[C@H](N)[C@@H](O)[C@@H]1O
> 128 µg/mL: Staphylococcus aureus [1] | Staphylococcus aureus [2] | Staphylococcus aureus [3] | Staphylococcus aureus [4] | Staphylococcus aureus [7] | Staphylococcus aureus [5] | Staphylococcus aureus [6]

NC[C@H]1O[C@H](O[C@H]2[C@H](O)[C@@H](OCc3ccccn3)[C@H](N)C[C@@H]2N)[C@H](N)[C@@H](OCc2ccccn2)[C@@H]1O
> 128 µg/mL: Staphylococcus aureus [1] | Staphylococcus aureus [2] | Staphylococcus aureus [3] | Staphylococcus aureus [4] | Staphylococcus aureus [5] | Staphylococcus aureus [6]

NC[C@H]1O[C@H](O[C@H]2[C@H](O)[C@@H](OCc3ccc4ccccc4n3)[C@H](N)C[C@@H]2N)[C@H](N)[C@@H](OCc2ccc3ccccc3n2)[C@@H]1O
> 128 µg/mL: Staphylococcus aureus [1] | Staphylococcus aureus [2] | Staphylococcus aureus [3] | Staphylococcus aureus [4] | Staphylococcus aureus [5] | Staphylococcus aureus [6]

NC[C@H]1O[C@H](O[C@H]2[C@H](O)[C@@H](O)[C@H](N)C[C@@H]2N)[C@H](N)[C@@H](O)[C@@H]1OCc1ccc2ccccc2c1
> 128 µg/mL: Staphylococcus aureus [1] | Staphylococcus aureus [2] | Staphylococcus aureus [3] | Staphylococcus aureus [4] | Staphylococcus aureus [5] | Staphylococcus aureus [6]

NC[C@H]1O[C@H](O[C@H]2[C@H](O)[C@@H](OCc3ccc4ccccc4n3)[C@H](N)C[C@@H]2N)[C@H](N)[C@@H](OCc2ccc3ccccc3n2)[C@@H]1OCc1ccc2ccccc2n1
64 µg/mL: Staphylococcus aureus [3] | Staphylococcus aureus [7] | Staphylococcus aureus [8] | Pseudomonas aeruginosa [20] | Pseudomonas aeruginosa [21]
> 128 µg/mL: Staphylococcus aureus [1] | Staphylococcus aureus [4] | Acinetobacter lwoffii [9] | Pseudomonas aeruginosa [10] | Pseudomonas aeruginosa [11] | Pseudomonas aeruginosa [12] | Klebsiella pneumoniae | Escherichia coli [13] | Escherichia coli [14] | Pseudomonas aeruginosa [15] | Pseudomonas aeruginosa [16] | Pseudomonas aeruginosa [17] | Pseudomonas aeruginosa [18] | Pseudomonas aeruginosa [19] | Staphylococcus aureus [6] | Escherichia coli [23]
128 µg/mL: Staphylococcus aureus [2] | Staphylococcus aureus [5] | Acinetobacter lwoffii [22]

NC[C@H]1O[C@H](O[C@H]2[C@H](OCc3ccc4ccccc4c3)[C@@H](O)[C@H](N)C[C@@H]2N)[C@H](N)[C@@H](O)[C@@H]1O
> 128 µg/mL: Staphylococcus aureus [1] | Staphylococcus aureus [2] | Staphylococcus aureus [3] | Staphylococcus aureus [4] | Staphylococcus aureus [5] | Staphylococcus aureus [6]

NC[C@H]1O[C@H](O[C@H]2[C@H](O)[C@@H](O)[C@H](N)C[C@@H]2N)[C@H](N)[C@@H](OCc2ccc3ccccc3c2)[C@@H]1O
> 128 µg/mL: Staphylococcus aureus [1] | Staphylococcus aureus [2] | Staphylococcus aureus [4] | Staphylococcus aureus [5] | Staphylococcus aureus [6]
128 µg/mL: Staphylococcus aureus [3]
